In patent US20100056524A1, “Compound” (priority 2008, published 2010):
Where a name gives a salt, the structure may show the parent alone.

Target: T1, TBK1 (Homo sapiens, UniProt Q9UHD2)
T1 construct: All protein kinases were of human origin and encoded full length proteins, unless indicated otherwise; His6; made in house; host or cells: insect Sf21 cells
T1 sequence (Q9UHD2 1-729): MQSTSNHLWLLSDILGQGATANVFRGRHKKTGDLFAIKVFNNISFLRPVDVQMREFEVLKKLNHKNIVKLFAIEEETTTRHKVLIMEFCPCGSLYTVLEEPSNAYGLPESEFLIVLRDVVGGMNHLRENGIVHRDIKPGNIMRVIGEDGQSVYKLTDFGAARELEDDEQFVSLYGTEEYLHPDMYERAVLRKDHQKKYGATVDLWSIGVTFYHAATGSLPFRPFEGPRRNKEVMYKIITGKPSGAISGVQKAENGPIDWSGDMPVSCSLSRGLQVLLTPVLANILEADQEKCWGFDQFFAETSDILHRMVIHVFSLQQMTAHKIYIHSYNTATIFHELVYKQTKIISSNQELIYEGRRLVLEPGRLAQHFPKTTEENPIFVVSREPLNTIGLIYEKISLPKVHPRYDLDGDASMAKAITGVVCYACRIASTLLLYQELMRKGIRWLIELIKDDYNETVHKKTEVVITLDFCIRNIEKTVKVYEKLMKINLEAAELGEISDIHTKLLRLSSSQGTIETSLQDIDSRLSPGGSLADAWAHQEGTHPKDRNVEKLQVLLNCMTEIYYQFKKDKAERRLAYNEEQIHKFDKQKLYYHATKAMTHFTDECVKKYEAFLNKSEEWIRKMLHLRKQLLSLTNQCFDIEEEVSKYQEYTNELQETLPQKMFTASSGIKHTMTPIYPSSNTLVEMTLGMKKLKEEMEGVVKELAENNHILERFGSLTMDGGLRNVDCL
Assay: TBK1 protein kinase assay ([γ-33P]ATP, P81 filterplates)
Assay type: biochemical
Conditions: 50 μM ATP; read-out: Potency (TBK1 IC50 potency score)
Text: All protein kinases were of human origin and encoded full length proteins, unless indicated otherwise. They were either expressed as glutathione S-transferase (GST) fusion proteins in Escherichia Coli or as hexahistidine (His6)-tagged proteins in insect Sf21 cells. GST fusion proteins were purified by affinity chromatography on glutathione-Sepharose, and His6-tagged proteins on nickel/nitriloacetate-agarose. The procedures for expressing some of the protein kinases used herein have been detailed previously.^8,9 The following sections outline the DNA vectors synthesised and the procedures used to express and purifying protein kinases that have not been reported previously.
The following kinases were expressed in Sf21 cells: Aurora B and Aurora C, extra-cellular signal-regulated kinase 8 (ERK8), microtubule affinity regulating kinase 3 (MARK3), protein kinase Bα[118-480][S473D], protein kinase Bβ (PKBβ[120-481][S474D], 3-phosphoinositide-dependent protein kinase-1 [52-556]
Assays were performed for 30 min using Multidrop Micro reagent dispensers (Thermo Electron Corporation, Waltham, Mass. 02454, USA) in a 96-well format. The concentration of magnesium acetate in the assays was 10 mM and the [γ-33P] ATP (800 cpm/pmol) was used at 5, 20 or 50 μM as indicated, in order to be at or below the Km for ATP for each enzyme. Protein kinases assayed at 5 μM ATP were: —ERK1, ERK8, PKBα, MARK3, Aurora C. Protein kinases assayed at 20 μM ATP were: —JNK1, PDK1, CHK1, CHK2, CDK2 and Aurora B. Protein kinases assayed at 50 μM ATP were: —MNK2, IKKepsilon and TBK1.
The assays were initiated with MgATP, stopped by addition of 5 μl of 0.5 M orthophosphoric acid and spotted on to P81 filterplates using a unifilter harvester (PerkinElmer, Boston, Mass. 02118, USA). The IC50 values of inhibitors were determined after carrying out assays at 10 different concentrations of each compound.
ERK1 and ERK8 were both assayed against myelin basic protein (MBP, 0.33 mg/ml). MARK3 was assayed against the peptide […] (300 μM), MNK2 against the eIF4E protein (0.5 mg/ml). PKBβ was assayed against the peptide […] (30 μM). TBK1 were assayed against ([…]) (300 μM). The substrates used for other protein kinases were described previously.^8,9
Unless stated otherwise, enzymes were diluted in 50 mM Tris/HCl pH 7.5, 0.1 mM EGTA, 1 mg/ml BSA, 0.1% (v/v) 2-mercaptoethanol and assayed in 50 mM Tris/HCl pH 7.5, 0.1 mM EGTA, 0.1% (v/v) 2-mercaptoethanol.

| IC50 | Structure (SMILES) |
| --- | --- |
| 100 to 1000 nM | CC(=O)NCCCNc1nc(Nc2cccc(F)c2)ncc1C1CC1 [Example 1, N-{3-[5-Cyclopropyl-2-(3-fluoro-phenylamino)-pyrimidin-4-ylamino]-propyl}-acetamide trifluoroacetic acid salt] |
| < 100 nM | CC(C)C(=O)NCCCNc1nc(Nc2cccc(F)c2)ncc1C1CC1 [Example 2, N-{3-[5-Cyclopropyl-2-(3-fluoro-phenylamino)-pyrimidin-4-ylamino]-propyl}-isobutyramide trifluoroacetic acid salt] |
| < 100 nM | O=C(NCCCNc1nc(Nc2cccc(F)c2)ncc1C1CC1)C1CCCCC1 [Example 3, Cyclohexanecarboxylic acid {3-[5-cyclopropyl-2-(3-fluoro-phenylamino)-pyrimidin-4-ylamino]-propyl}-amide trifluoroacetic acid salt] |
| 100 to 1000 nM | CN(C)CC(=O)NCCCNc1nc(Nc2cccc(F)c2)ncc1C1CC1 [Example 4, N-{3-[5-Cyclopropyl-2-(3-fluoro-phenylamino)-pyrimidin-4-ylamino]-propyl}-2-dimethylamino-acetamide trifluoroacetic acid salt] |
| 100 to 1000 nM | O=C(NCCCNc1nc(Nc2cccc(F)c2)ncc1C1CC1)c1ccco1 [Example 5, Furan-2-carboxylic acid{3-[5-cyclopropyl-2-(3-fluoro-phenylamino)-pyrimidin-4-ylamino]-propyl}-amide trifluoroacetic acid salt] |
| < 100 nM | O=C(CC1CCCC1)NCCCNc1nc(Nc2cccc(F)c2)ncc1C1CC1 [Example 6, 2-Cyclopentyl-N-{3-[5-cyclopropyl-2-(3-fluoro-phenylamino)-pyrimidin-4-ylamino]-propyl}-acetamide trifluoroacetic acid salt] |
| 100 to 1000 nM | O=C(NCCCNc1nc(Nc2cccc(F)c2)ncc1C1CC1)c1ccn[nH]1 [Example 7, 2H-Pyrazole-3-carboxylic acid {3-[5-cyclopropyl-2-(3-fluoro-phenylamino)-pyrimidin-4-ylamino]-propyl}-amide trifluoroacetic acid salt] |
| < 100 nM | Cc1oncc1C(=O)NCCCNc1nc(Nc2cccc(F)c2)ncc1C1CC1 [Example 8, 5-Methyl-isoxazole-4-carboxylic acid{3-[5-cyclopropyl-2-(3-fluoro-phenylamino)-pyrimidin-4-ylamino]-propyl}-amide trifluoroacetic acid salt] |
| 100 to 1000 nM | O=C(NCCCNc1nc(Nc2cccc(F)c2)ncc1C1CC1)c1nc[nH]n1 [Example 9, 1H-1,2,4-Triazole-3-carboxylic acid {3-[5-cyclopropyl-2-(3-fluoro-phenylamino)-pyrimidin-4-ylamino]-propyl}-amide trifluoroacetic acid salt] |
| 1000 to 10000 nM | Cn1cnc(C(=O)NCCCNc2nc(Nc3cccc(F)c3)ncc2C2CC2)c1 [Example 10, 1-Methyl-1H-imidazole-4-carboxylic acid {3-[5-cyclopropyl-2-(3-fluoro-phenylamino)-pyrimidin-4-ylamino]-propyl}-amide trifluoroacetic acid salt] |

Same assay, conditions: Table 5; 50 μM ATP; read-out: TBK1 IC50

| IC50 | Structure (SMILES) |
| --- | --- |
| > 1000 nM | CC(C)c1cnc(Nc2cccc(F)c2)nc1NCCCNC(=O)C1CCC1 [Compound B, cyclobutanecarboxylic acid {3-[2-(3-fluoro-phenylamino)-5-isopropyl-pyrimidin-4-ylamino]-propyl}-amide, reference compound] |
| > 1000 nM | O=C(NCCCNc1nc(Nc2cccc(F)c2)ncc1CC1CC1)C1CCC1 [Compound C, cyclobutanecarboxylic acid {3-[5-cyclopropylmethyl-2-(3-fluoro-phenylamino)-pyrimidin-4-ylamino]-propyl}-amide, reference compound] |
| 42 nM | CCc1cnc(Nc2cccc(F)c2)nc1NCCCNC(=O)C1CCC1 [Compound D, cyclobutanecarboxylic acid {3-[5-ethyl-2-(3-fluoro-phenylamino)-pyrimidin-4-ylamino]-propyl}-amide, reference compound] |

Same assay, conditions: from TBK1 IC50 values of Table 5

| fold loss in activity against TBK1 compared to Example 23 | Structure (SMILES) |
| --- | --- |
| 10 fold | CCc1cnc(Nc2cccc(F)c2)nc1NCCCNC(=O)C1CCC1 [Compound D, cyclobutanecarboxylic acid {3-[5-ethyl-2-(3-fluoro-phenylamino)-pyrimidin-4-ylamino]-propyl}-amide, reference compound] |
